This is an account of results in ChEMBL document CHEMBL4041490, “Discovery of nanomolar ligands with novel scaffolds for the histamine H4 receptor by virtual screening” (Eur J Med Chem, 2017).

A value given as a limit tells only on which side of the number the result lay.

Test [1] has as its target T1, Histamine H4 receptor (Homo sapiens, UniProt Q9H3N8). The experiment in a line: Antagonist activity at H4 receptor in human SH-SY5Y cells assessed as inhibition of imetit-induced GTPgamma[35S] binding at 1 uM after 30 mins by microbeta scintillation counting method relative to control. Type of test: cell-based. In general terms: Binding of GTPγS marks nucleotide exchange on a G protein.

In test [2] the target is T1, Histamine H4 receptor. The experiment in a line: Antagonist activity at H4 receptor in human SH-SY5Y cells assessed as inhibition of imetit-induced GTPgamma[35S] binding after 30 mins by microbeta scintillation counting method. In kind it is cell-based.
Test [3] has as its target Voltage-gated inwardly rectifying potassium channel KCNH2 (Homo sapiens, UniProt Q12809). Briefly: Inhibition of human ERG.
In test [4] the target is Histamine H3 receptor (Homo sapiens, UniProt Q9Y5N1). The experiment in a line: Antagonist activity at H3 receptor (unknown origin).
Test [5] addresses T1, Histamine H4 receptor. The experiment in a line: Antagonist activity at human H4 receptor expressed in CHO cells co-expressing Galphai2 assessed as inhibition of imetit-induced GTPgamma[35S] binding after 30 mins by microbeta scintillation counting method. In kind it is cell-based.
For test [6], the target named is T1, Histamine H4 receptor. Briefly: Antagonist activity at human H4 receptor expressed in CHO cells co-expressing Galphai2 assessed as inhibition of imetit-induced GTPgamma[35S] binding at 1 uM after 30 mins by microbeta scintillation counting method relative to control. Type of test: cell-based.
Test [7] concerns the target D(3) dopamine receptor (Homo sapiens, UniProt P35462). Briefly: Antagonist activity at D3 receptor (unknown origin).
The target of test [8] is T1, Histamine H4 receptor. The experiment in a line: Agonist activity at human H4 receptor expressed in CHO cell membranes co-expressing Galphai2 at 1 uM by GTPgamma[35S] binding assay.
For test [9], the target named is T1, Histamine H4 receptor. Briefly: Agonist activity at human H4 receptor expressed in CHO cell membranes co-expressing Galphai2 by GTPgamma[35S] binding assay.
For test [10], the target named is T1, Histamine H4 receptor. Briefly: Antagonist activity at human H4 receptor assessed as inhibition of imetit-induced GTPgamma[35S] binding after 30 mins by microbeta scintillation counting method.
The target in test [11] is T1, Histamine H4 receptor. The experiment in a line: Antagonist activity at H4 receptor (unknown origin).

Sequence of Histamine H3 receptor (Q9Y5N1 whole entry): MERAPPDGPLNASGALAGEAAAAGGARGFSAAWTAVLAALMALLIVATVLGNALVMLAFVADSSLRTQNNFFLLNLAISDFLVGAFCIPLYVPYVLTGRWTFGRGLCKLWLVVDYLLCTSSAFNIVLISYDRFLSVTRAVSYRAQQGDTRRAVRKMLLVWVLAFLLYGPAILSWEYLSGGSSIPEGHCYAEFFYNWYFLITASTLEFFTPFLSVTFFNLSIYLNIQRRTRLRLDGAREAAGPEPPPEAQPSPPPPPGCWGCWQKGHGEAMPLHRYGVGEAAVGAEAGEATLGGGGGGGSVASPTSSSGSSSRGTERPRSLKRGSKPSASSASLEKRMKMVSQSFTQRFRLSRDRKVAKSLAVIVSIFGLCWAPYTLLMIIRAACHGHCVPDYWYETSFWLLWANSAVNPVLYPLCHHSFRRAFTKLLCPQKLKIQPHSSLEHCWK
T1 sequence (Q9H3N8 whole entry): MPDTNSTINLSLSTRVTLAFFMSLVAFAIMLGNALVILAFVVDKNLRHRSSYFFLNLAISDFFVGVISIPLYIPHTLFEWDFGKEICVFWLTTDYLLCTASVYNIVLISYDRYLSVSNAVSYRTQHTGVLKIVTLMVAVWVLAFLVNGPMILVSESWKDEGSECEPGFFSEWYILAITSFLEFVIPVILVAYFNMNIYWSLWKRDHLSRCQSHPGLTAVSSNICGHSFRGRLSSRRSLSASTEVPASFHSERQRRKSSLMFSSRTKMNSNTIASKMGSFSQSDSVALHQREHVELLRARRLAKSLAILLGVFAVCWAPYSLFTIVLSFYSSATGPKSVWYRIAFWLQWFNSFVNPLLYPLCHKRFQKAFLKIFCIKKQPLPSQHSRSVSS
Sequence of Voltage-gated inwardly rectifying potassium channel KCNH2 (Q12809 whole entry): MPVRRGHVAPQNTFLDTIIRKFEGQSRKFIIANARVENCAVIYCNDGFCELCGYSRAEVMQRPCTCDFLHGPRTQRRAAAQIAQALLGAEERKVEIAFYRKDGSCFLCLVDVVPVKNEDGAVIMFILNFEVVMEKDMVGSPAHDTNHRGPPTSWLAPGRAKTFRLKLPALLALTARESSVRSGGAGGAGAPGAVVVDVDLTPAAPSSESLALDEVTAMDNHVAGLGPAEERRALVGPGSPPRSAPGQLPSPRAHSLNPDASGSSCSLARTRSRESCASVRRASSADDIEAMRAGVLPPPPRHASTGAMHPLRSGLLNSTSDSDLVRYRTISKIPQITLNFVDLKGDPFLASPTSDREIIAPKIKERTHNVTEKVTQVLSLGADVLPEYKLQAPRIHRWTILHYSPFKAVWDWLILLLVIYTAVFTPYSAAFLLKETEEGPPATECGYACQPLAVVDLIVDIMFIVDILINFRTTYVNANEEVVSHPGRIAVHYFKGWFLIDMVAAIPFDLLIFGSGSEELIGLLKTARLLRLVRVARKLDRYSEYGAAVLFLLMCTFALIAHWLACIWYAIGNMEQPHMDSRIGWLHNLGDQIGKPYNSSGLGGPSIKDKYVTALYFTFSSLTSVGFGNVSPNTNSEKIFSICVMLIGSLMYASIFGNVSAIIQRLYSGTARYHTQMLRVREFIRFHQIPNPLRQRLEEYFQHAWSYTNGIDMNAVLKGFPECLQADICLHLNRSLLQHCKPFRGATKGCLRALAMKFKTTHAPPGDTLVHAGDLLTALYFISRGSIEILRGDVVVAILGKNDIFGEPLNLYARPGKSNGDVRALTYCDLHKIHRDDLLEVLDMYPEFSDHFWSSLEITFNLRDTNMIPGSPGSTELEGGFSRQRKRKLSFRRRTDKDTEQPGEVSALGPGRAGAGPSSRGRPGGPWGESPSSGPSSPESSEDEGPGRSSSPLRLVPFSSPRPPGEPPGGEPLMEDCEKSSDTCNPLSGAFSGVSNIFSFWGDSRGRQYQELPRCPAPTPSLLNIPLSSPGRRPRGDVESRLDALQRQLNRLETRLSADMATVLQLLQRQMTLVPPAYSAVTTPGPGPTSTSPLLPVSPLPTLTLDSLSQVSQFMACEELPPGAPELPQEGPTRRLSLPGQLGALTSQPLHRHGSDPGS
Sequence of D(3) dopamine receptor (P35462 whole entry): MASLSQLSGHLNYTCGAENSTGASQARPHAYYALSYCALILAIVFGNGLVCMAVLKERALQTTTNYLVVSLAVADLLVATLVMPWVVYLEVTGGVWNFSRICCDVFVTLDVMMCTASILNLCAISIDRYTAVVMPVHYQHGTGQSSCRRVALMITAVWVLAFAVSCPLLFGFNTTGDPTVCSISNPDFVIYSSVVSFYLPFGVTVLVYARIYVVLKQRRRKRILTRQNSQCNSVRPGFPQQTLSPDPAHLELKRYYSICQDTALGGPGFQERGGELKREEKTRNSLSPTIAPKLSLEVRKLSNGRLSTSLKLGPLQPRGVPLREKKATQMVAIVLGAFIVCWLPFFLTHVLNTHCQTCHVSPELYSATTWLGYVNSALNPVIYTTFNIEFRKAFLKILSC

For orientation: inhibition means how much of the control response was suppressed. In general, Ki refers to a dissociation constant, usually derived from enzyme kinetics or from competition with a known ligand. For `Clc1cccc(N2CCN(CCCCNc3nccc4ccccc34)CC2)c1Cl`, the inhibition in test [1] is over 20%. Moreover, the figures for the inhibition constant Ki in test [2] and in [3] were 0.0052 µM and 0.03 µM, respectively.

For the compound `O=C(NC(c1ccc(Cl)cc1)c1ccc(Cl)cc1)OCCCc1c[nH]cn1`, the inhibition in [1] was over 20%. Further, the Ki in [2] came out at 0.0145 µM; in test [4], 0.258 µM.

For `O=C(CCCc1ccc(I)cc1)OCCCc1cnc[nH]1`, the Ki was 0.118 µM in test [5] and 0.041 µM in test [4].

Consider `Nc1ccc(NCCc2ccc(OCCCN3CCCCC3)cc2)nc1`, for which the inhibition in test [6] was over 20%. Also, the values for the Ki in test [5] and in test [4] were 30 µM and 0.0048 µM, respectively.

With `c1ccc(C(OCCCc2c[nH]cn2)c2ccccc2)cc1`, the inhibition in test [1] was over 20%. In addition, the Ki in [2] was found to be 0.025 µM; in [4], 0.024 µM; in test [3], 0.5 µM.

Regarding `c1ccc(C(OCCCc2cnc[nH]2)(c2ccccc2)c2ccccc2)cc1`, the Ki in test [5] is 0.24 µM; in test [4], over 1 µM.

For the compound `O=C(/C=C/c1ccccc1)c1ccc(OCCCc2c[nH]cn2)cc1`, the inhibition in test [1] is over 20%. The Ki in test [2] worked out at 0.011 µM; in test [4] it was 0.0083 µM.

Consider `CC(=O)c1ccc(OCc2ccc(CN3CCCC(C)C3)cc2)cc1` (configuration not stated), for which, in [6], the inhibition is over 20%. The Ki came to 16.4 µM in test [5] and 0.022 µM in test [4].

Take `COc1cc2c(cc1OC)C(C)=C(C(=O)NCCCCN1CCN(c3ccccc3F)CC1)C2`: the inhibition in test [6] is over 20%. In addition, the Ki in test [5] is 3.8 µM; in test [7] it was 0.0005 µM.

Turning to `O=C(O)C(Cc1cccc2ccccc12)NC(=O)[C@@H](CS)Cc1ccccc1` (some centres not stated), the inhibition in test [1] is over 20%. Moreover, the Ki in test [2] worked out at 0.062 µM.

For `COc1ccccc1N1CCN(CCCCNc2nccc3ccccc23)CC1`, in test [1], the inhibition was over 20%. In addition, the inhibition constant (Ki) in test [2] was found to be 0.051 µM.

Take `Brc1ccc(C(OCCCc2c[nH]cn2)c2ccc3ccccc3c2)cc1` (configuration not stated): the inhibition in [1] is over 20%. Further, the Ki was found to be 0.004 µM in test [2] and 0.047 µM in [4].

On to `Ic1ccc(C(OCCCc2c[nH]cn2)c2ccccc2)cc1` (configuration not stated), for which the inhibition in test [1] is over 20%. For the same compound, the Ki was found to be 0.003 µM in test [2] and 0.014 µM in test [4].

A word on the EC50: it is the concentration needed to bring the measured effect to its halfway point. A higher EC50 goes with weaker potency. `COc1ccc(/C(=N/[C@H](C)Cc2cnc[nH]2)c2ccccc2)c(O)c1` came in with an Activity in test [8] of over 20%. In test [9], this compound gave a 50% effective concentration (EC50) of 6.75 µM.

`O=[N+]([O-])c1cccc(C(OCCCc2c[nH]cn2)c2ccccc2)c1` (configuration not stated): the inhibition in test [1] was over 20%. The Ki in test [2] amounted to 0.0027 µM; in test [4], 0.0096 µM.

Regarding `CC(=O)SCC(Cc1ccc2c(c1)OCO2)C(=O)NCC(=O)OCc1ccccc1` (configuration not stated), the inhibition in test [6] is over 20%. For the same compound, the inhibitory constant (Ki) in test [5] was 0.214 µM.

For `O=C(c1ccccc1)c1ccc(OCCCCCN2CCCC2)cc1`, the inhibition in test [6] was over 20%. The Ki in [5] was 13 µM.

`O=C(NCCCCN1CCN(c2cccc(Cl)c2Cl)CC1)c1cncc(Br)c1`: the results for the Ki in test [7] and in test [10] were 0.0028 µM and 3.1 µM, respectively.

Regarding `O=C(CCNC(=O)C(Cc1ccccc1)Cn1ccnc1)OCc1ccccc1` (configuration not stated), in [1], the inhibition is over 20%. Besides, in test [2], the Ki came to 0.174 µM.

With `O=C(Nc1cccc2ccccc12)N1CCC(c2c[nH]cn2)CC1`, the inhibition in test [6] is over 20%. Moreover, the Ki in [5] came out at 1.09 µM.

In the case of `Clc1cccc(N2CCN(CCCCNc3ccc4ccccc4n3)CC2)c1Cl`, the inhibition in test [6] was over 20%. The Ki in test [5] amounted to 0.125 µM; in test [3] it was 0.01 µM.

Turning to `FC(F)(F)c1cccc(N2CCN(CCCCNc3nccc4ccccc34)CC2)c1`, the inhibition in test [1] is over 20%. Further, in test [2], the inhibitory constant (Ki) amounted to 0.0054 µM.

On to `O=C(NCCCCN1Cc2cccc3cccc(c23)C1)c1ccc2ccccc2c1`, for which the inhibition in test [1] is over 20%. Moreover, the Ki in test [2] amounted to 0.4 µM.

Consider `c1ccc(-c2ccc(CCCOCCCc3c[nH]cn3)cc2)cc1`, for which, in test [1], the inhibition is over 20%. Further, the results for the Ki in [2] and in test [4] were 0.027 µM and 0.118 µM, respectively.

In the case of `c1ccc(C(OCCCc2c[nH]cn2)(c2ccccc2)c2ccccc2)cc1`, the inhibition in test [6] is over 20%.

For the compound `COc1ccc2c(c1)c(CC(=O)NCCCn1ccnc1)c(C)n2C(=O)c1ccc(Cl)cc1`, the inhibition in test [6] is over 20%. The Ki in [5] was found to be 4.2 µM.

In turn, `COc1ccc2c(c1)c(CC(=O)NCCCO)c(C)n2C(=O)c1ccc(Cl)cc1` had an Activity in [8] of over 20%. The compound also displayed an EC50 in [9] of 7.78 µM.

On to `CCOC(=O)CN1Cc2ccccc2C[C@@H](NC(=O)C(Cc2ccccc2)C(=O)NO)C1=O` (some centres not stated), for which the inhibition in test [6] is over 20%. Besides, the Ki in test [5] was 3.02 µM.

On to `CC(C)(CN=C(c1ccccc1O)c1ccccc1O)c1c[nH]cn1`, for which the inhibition in test [1] was over 20%. For the same compound, the inhibition constant Ki in test [2] was 0.019 µM.

As for `O=C(CCCc1ccc(I)cc1)OCCCc1c[nH]cn1`, in test [6], the inhibition is over 20%.

In test [11], `O=c1[nH]c2ccccc2n1C1CCN(CCCC(c2ccc(F)cc2)c2ccc(F)cc2)CC1` [PIMOZIDE] returned a Ki of 2 µM.
